Reference: patent US20250228882A1, “ORALLY-BIOAVAILABLE NUCLEOSIDE ANALOGS” (Venatorx Pharmaceuticals, Inc., priority 2022, published 2025)
Read-outs that look alike come from different tables or passages of the source.

Assay: Bidirectional Caco-2 permeability assay
Assay type: in vitro ADME
Settings: human
Protocol: The bidirectional permeability of compounds across the Caco-2 cell monolayer was assessed. The Caco-2 model is a widely used in vitro model for small intestinal absorption and potential for efflux. Cell culture. Caco-2 cells were grown in DMEM supplemented with 10% fetal bovine serum (FBS), 1% Penicillin-Streptomycin and 1% MEMNEAA. The cells were incubated at 37° C., 5% CO2/95% air and saturated humidity. After reaching 80-90% confluency, the cells were gently detached with trypsin. Cells at passage 39 were seeded on the 24-well BD insert system at the density of 8×10^4 cells/cm^2 and cultured for 19 days with medium changed every 2-3 days. Measure the transepithelial electrical resistance (TEER) value of each well. The wells can be used only when their TEER values are greater than 600 Ohms/cm^2.
Transport assay. After removing the cell culture medium from the 24-well insert plate, the cells were rinsed with warm transport buffer. Appropriate dosing and receiving solutions were applied to the donor and receiver chambers to initiate the transport assay in apical to basolateral (A to B) or basolateral to apical (B to A) directions (500 and 1300 μL for apical and basolateral wells, respectively). Duplicate wells in each direction were used for the test compound and control compound. The plate was incubated in CO2 incubator at 37° C., with 5% CO2/95% air and saturated humidity without shaking. The sample after 10-minute incubation was used as the To sample, and the sample after 90-minute incubation was used as the T90 sample. To and T90 samples were collected from the donor and receiver side of each well at the designed timepoint, mixed with the transport buffer and acetonitrile/MeOH (1:1, v/v) and the internal standard for LC/MS/MS analysis. All samples were vortexed and centrifuged at 4000 rpm at 4° C. for 15 minutes, diluted with pure water and stored at 4° C. before bioanalysis by LC/MS/MS.
Sample analysis. The concentrations of test compounds and control compounds in Caco-2 cells were quantitatively determined by LC/MS/MS method after protein precipitation.
Calculations. The apparent permeability (Papp, cm/s), efflux ratio (ER) and recovery parameters were calculated for Caco-2 drug transport assay using the following equations: […]
where VR is the solution volume in the receiver chamber (0.4 mL on the apical side, 1.2 mL on the basolateral side); Area is the surface area for the insert membrane, i.e., 0.3 cm^2 for the area of the monolayer; Time is incubation time, expressed in seconds, i. e., 5400 s (90 min) for the current experiment; Co is the initial concentration of test compound or peak area ratio of control compounds in the donor chamber (M); VD is the volume in the donor chambers (0.4 mL on the apical side, 1.2 mL on the basolateral side); CD and CR are the final concentrations of test compounds or peak area ratio of control compounds in donor and receiver chambers, respectively.
Compounds with Papp<1.0 are classified as low permeability, Papp between 1-10 are classified as medium permeability, and Papp>10 are classified as high permeability. An efflux ratio (ER)>2 indicates the compounds are potential substrates for intestinal cell efflux transporters.

[1] = Caco-2 monolayer, apical to basolateral, 90-minute incubation, read-out: Papp, A-B
[2] = Caco-2 monolayer, basolateral to apical, 90-minute incubation, read-out: Papp, B-A
[3] = Caco-2 monolayer, ER>2 indicates potential efflux substrate, read-out: ER (efflux ratio)

Structure (SMILES)	Papp A→B at 90 min (Caco-2) [×10⁻⁶ cm/s]	Papp B→A at 90 min (Caco-2) [×10⁻⁶ cm/s]	efflux ratio at 90 min (Caco-2)	Papp A→B at 90 min [1] [×10⁻⁶ cm/s]	Papp B→A at 90 min [2] [×10⁻⁶ cm/s]	efflux ratio at 90 min [3]
CC(C)NC(=O)Nc1ncnn2c([C@]3(C#N)O[C@H](COC(=O)CC4CCCCC4)[C@@H](OC(=O)[C@@H](N)C(C)(C)C)[C@H]3O)ccc12 [Compound 4, (2R,3S,4R,5R)-5-cyano-2-((2-cyclohexylacetoxy)methyl)-4-hydroxy-5-(4-(3-isopropylureido)pyrrolo[2,1-f][1,2,4]triazin-7-yl)tetrahydrofuran-3-yl (S)-2-amino-3,3-dimethylbutanoate]	2.5	3.48	1.37			
COC(C)(C)C(=O)Nc1ncnn2c([C@]3(C#N)O[C@H](COC(=O)Cc4ccccc4)[C@@H](OC(=O)[C@@H](N)C(C)(C)C)[C@H]3O)ccc12 [Compound 5, (2R,3S,4R,5R)-5-cyano-4-hydroxy-5-(4-(2-methoxy-2-methylpropanamido)pyrrolo[2,1-f][1,2,4]triazin-7-yl)-2-((2-phenylacetoxy)methyl)tetrahydrofuran-3-yl (S)-2-amino-3,3-dimethylbutanoate]				17.7	16.5	0.93
CCOC(C)(C)C(=O)Nc1ncnn2c([C@]3(C#N)O[C@H](COC(=O)Cc4ccccc4)[C@@H](OC(=O)[C@@H](N)C(C)(C)C)[C@H]3O)ccc12 [Compound 6, (2R,3S,4R,5R)-5-cyano-5-(4-(2-ethoxy-2-methylpropanamido)pyrrolo[2,1-f][1,2,4]triazin-7-yl)-4-hydroxy-2-((2-phenylacetoxy)methyl)tetrahydrofuran-3-yl (S)-2-amino-3,3-dimethylbutanoate]				14	15.4	1.1
CCOC(C)(C)C(=O)Nc1ncnn2c([C@]3(C#N)O[C@H](COC(=O)CC4CCCCC4)[C@@H](OC(=O)[C@@H](N)C(C)(C)C)[C@H]3O)ccc12 [Compound 7, (2R,3S,4R,5R)-5-cyano-2-((2-cyclohexylacetoxy)methyl)-5-(4-(2-ethoxy-2-methylpropanamido)pyrrolo[2,1-f][1,2,4]triazin-7-yl)-4-hydroxytetrahydrofuran-3-yl (S)-2-amino-3,3-dimethylbutanoate]	7.82	8.41	1.07			
CCC(CC)C(=O)Nc1ncnn2c([C@]3(C#N)O[C@H](COC(=O)Cc4ccccc4)[C@@H](OC(=O)[C@@H](N)C(C)(C)C)[C@H]3O)ccc12 [Compound 8, (2R,3S,4R,5R)-5-cyano-5-(4-(2-ethylbutanamido)pyrrolo[2,1-f][1,2,4]triazin-7-yl)-4-hydroxy-2-((2-phenylacetoxy)methyl)tetrahydrofuran-3-yl (S)-2-amino-3,3-dimethylbutanoate]				0.52	0.13	0.26
CC[C@H](C)C(=O)Nc1ncnn2c([C@]3(C#N)O[C@H](COC(=O)Cc4ccccc4)[C@@H](OC(=O)[C@@H](N)C(C)(C)C)[C@H]3O)ccc12 [Compound 10, (2R,3S,4R,5R)-5-cyano-4-hydroxy-5-(4-((S)-2-methylbutanamido)pyrrolo[2,1-f][1,2,4]triazin-7-yl)-2-((2-phenylacetoxy)methyl)tetrahydrofuran-3-yl (S)-2-amino-3,3-dimethylbutanoate]				0.59	0.1	0.17
CC[C@@H](C)C(=O)Nc1ncnn2c([C@]3(C#N)O[C@H](COC(=O)CC4CCCCC4)[C@@H](OC(=O)[C@@H](N)C(C)(C)C)[C@H]3O)ccc12 [Compound 12, (2R,3S,4R,5R)-5-cyano-2-((2-cyclohexylacetoxy)methyl)-4-hydroxy-5-(4-((R)-2-methylbutanamido)pyrrolo[2,1-f][1,2,4]triazin-7-yl)tetrahydrofuran-3-yl (S)-2-amino-3,3-dimethylbutanoate]	3.48	25.5	7.34			
CC[C@H](C)C(=O)Nc1ncnn2c([C@]3(C#N)O[C@H](COC(=O)CC4CCCCC4)[C@@H](OC(=O)[C@@H](N)C(C)(C)C)[C@H]3O)ccc12 [Compound 13, (2R,3S,4R,5R)-5-cyano-2-((2-cyclohexylacetoxy)methyl)-4-hydroxy-5-(4-((S)-2-methylbutanamido)pyrrolo[2,1-f][1,2,4]triazin-7-yl)tetrahydrofuran-3-yl (S)-2-amino-3,3-dimethylbutanoate]	3.16	30.5	9.68			
CC(C)[C@@H](C)C(=O)Nc1ncnn2c([C@]3(C#N)O[C@H](COC(=O)CC4CCCCC4)[C@@H](OC(=O)[C@@H](N)C(C)(C)C)[C@H]3O)ccc12 [Compound 14, (2R,3S,4R,5R)-5-cyano-2-((2-cyclohexylacetoxy)methyl)-5-(4-((R)-2,3-dimethylbutanamido)pyrrolo[2,1-f][1,2,4]triazin-7-yl)-4-hydroxytetrahydrofuran-3-yl (S)-2-amino-3,3-dimethylbutanoate]	1.96	1.38	0.7			
CC(C)[C@H](C)C(=O)Nc1ncnn2c([C@]3(C#N)O[C@H](COC(=O)CC4CCCCC4)[C@@H](OC(=O)[C@@H](N)C(C)(C)C)[C@H]3O)ccc12 [Compound 15, (2R,3S,4R,5R)-5-cyano-2-((2-cyclohexylacetoxy)methyl)-5-(4-((S)-2,3-dimethylbutanamido)pyrrolo[2,1-f][1,2,4]triazin-7-yl)-4-hydroxytetrahydrofuran-3-yl (S)-2-amino-3,3-dimethylbutanoate]	1.93	1.76	0.91			
CC(C)[C@@H](C)C(=O)Nc1ncnn2c([C@]3(C#N)O[C@H](COC(=O)Cc4ccccc4)[C@@H](OC(=O)[C@@H](N)C(C)(C)C)[C@H]3O)ccc12 [Compound 21, (2R,3S,4R,5R)-5-cyano-5-(4-((R)-2,3-dimethylbutanamido)pyrrolo[2,1-f][1,2,4]triazin-7-yl)-4-hydroxy-2-((2-phenylacetoxy)methyl)tetrahydrofuran-3-yl (S)-2-amino-3,3-dimethylbutanoate]				3.1	21	6.77
CC(C)[C@H](C)C(=O)Nc1ncnn2c([C@]3(C#N)O[C@H](COC(=O)Cc4ccccc4)[C@@H](OC(=O)[C@@H](N)C(C)(C)C)[C@H]3O)ccc12 [Compound 22, (2R,3S,4R,5R)-5-cyano-5-(4-((S)-2,3-dimethylbutanamido)pyrrolo[2,1-f][1,2,4]triazin-7-yl)-4-hydroxy-2-((2-phenylacetoxy)methyl)tetrahydrofuran-3-yl (S)-2-amino-3,3-dimethylbutanoate]				2.79	6.1	2.19
CC(C)NC(=O)Nc1ncnn2c([C@]3(C#N)O[C@H](COC(=O)Cc4ccccc4)[C@@H](OC(=O)[C@@H](N)C(C)(C)C)[C@H]3O)ccc12 [Compound 29, (2R,3S,4R,5R)-5-cyano-4-hydroxy-5-(4-(3-isopropylureido)pyrrolo[2,1-f][1,2,4]triazin-7-yl)-2-((2-phenylacetoxy)methyl)tetrahydrofuran-3-yl (S)-2-amino-3,3-dimethylbutanoate]				1.69	19.6	11.6
CC(=O)OCOC(=O)Nc1ncnn2c([C@]3(C#N)O[C@H](COC(=O)Cc4ccccc4)[C@@H](OC(=O)[C@@H](N)C(C)(C)C)[C@H]3O)ccc12 [Compound 30, (2R,3S,4R,5R)-5-(4-(((acetoxymethoxy)carbonyl)amino)pyrrolo[2,1-f][1,2,4]triazin-7-yl)-5-cyano-4-hydroxy-2-((2-phenylacetoxy)methyl)tetrahydrofuran-3-yl (S)-2-amino-3,3-dimethylbutanoate]				0.09	3.11	34.6
CC(C)(C)[C@H](N)C(=O)OC[C@H]1O[C@@](C#N)(c2ccc3c(N)ncnn23)[C@H](O)[C@@H]1OC(=O)CC1CCCCC1 [Compound 32, ((2R,3S,4R,5R)-5-(4-aminopyrrolo[2,1-f][1,2,4]triazin-7-yl)-5-cyano-3-(2-cyclohexylacetoxy)-4-hydroxytetrahydrofuran-2-yl)methyl (S)-2-amino-3,3-dimethylbutanoate]	15.4	20.7	1.34			
